The record followed here is PMC9283466, “In silico identification of two peptides with antibacterial activity against multidrug-resistant Staphylococcus aureus” (NPJ Biofilms and Microbiomes, 2022).

One assay has as its system P. aeruginosa (CF) C3719. Description: microbe, parasite or virus in culture. In kind it is cell-based, Pseudomonas aeruginosa. The settings on record: CF) C3719. On the procedure:
(§1) To determine the antimicrobial activity of the new antimicrobial peptides, HG2 and HG4, their minimum inhibitory concentrations (MICs) were determined by broth microdilution method[51] in cation adjusted Mueller Hinton broth (MHB) following the International Organisation for Standardisation (ISO) 20776-1 standard for MIC testing using a final bacterial inoculum of 5 × 10^5 CFU/ml[52]. […] The peptides dissolved in sterile distilled water were added to bacteria culture and incubated overnight at appropriate conditions. The MICs of the peptides and comparator antibiotics were recorded after 18–24 h. The minimum bactericidal concentrations (MBCs) were also determined and were taken as the lowest concentration of the antimicrobial that prevented the growth of bacterial cells after the subculture of cells (from MIC treatment) onto antibiotic-free media.

Another assay has as its system P. aeruginosa PA01. Put plainly: microbe, parasite or virus in culture. In kind it is cell-based, Pseudomonas aeruginosa. On the procedure: as §1
For assay [1], the system named is P. aeruginosa (CF) LES400. Description: microbe, parasite or virus in culture. The settings on record: CF) LES400. In kind it is cell-based, Pseudomonas aeruginosa. On the procedure: as §1
Assay [2] concerns P. aeruginosa (CF) AMT0060. Description: microbe, parasite or virus in culture. The class given is cell-based, Pseudomonas aeruginosa. The settings on record: CF) AMT0060. On the procedure: as §1
The test system of a further assay is HepG2 (liver cell line). Put plainly: Cytotoxicity, resazurin cell viability. The settings on record: 48 h. In kind it is cell-based, human. On the procedure: (§2) The toxicity of HG2 and HG4 was tested by a well-known method[60] using the following cell types: BEAS-2B (normal airway epithelial cells, ATCC CRL-9609), IMR-90 (normal fibroblasts, ATCC CCL-186) and HepG2 (liver cell line, ATCC HB-8065). BEAS-2B, IMR-90 and HepG2 cells were cultured in Dulbecco’s modified essential medium (DMEM) supplemented with 10% fetal calf serum (FCS), 1% L-glutamine and 1% antibiotics (all from Invitrogen). Cells were routinely grown onto 25 cm^2 flasks maintained in a 5% CO2 incubator at 37 °C. Briefly, cells grown on 25 cm^2 flasks were detached using trypsin-EDTA solution (Thermofisher) and seeded into 96-well cell culture plates (Greiner Bio-one) at ~10^4 cells per well (counted using Mallasez’s chamber). The cells were grown at 37 °C in a 5% CO2 incubator until they reached confluence (~48–72 h of seeding). Wells were then aspirated and increasing concentrations of HG2 or HG4 were added to the cells and incubated for a further 48 h at 37 °C in a 5% CO2 incubator. The wells were then emptied, and cell viability was evaluated using a resazurin based in vitro toxicity assay kit (Sigma-Aldrich) following the manufacturer’s instructions. Briefly, the resazurin stock solution was diluted at 1:100 in sterile PBS containing calcium and magnesium (PBS^++, pH 7.4) and emptied wells were filled with 100 µl of the diluted resazurin solution. After 4 h incubation at 37 °C with the peptide-treated cells, fluorescence intensity was measured using a microplate reader (excitation wavelength of 530 nm/emission wavelength of 590 nm). The fluorescence values were normalised by the controls and expressed as the percentage of cell viability. The IC50 values of HG2 or HG4 on cell viability (i.e. the concentration of peptides causing a reduction of 50% of the cell viability) were calculated using GraphPad® Prism 7 software.
For orientation: The colour change of resazurin is a common sign of viable cells or microbes.

In assay [3] the test system is IMR-90 (normal fibroblasts). Description: Cytotoxicity, resazurin cell viability. In kind it is cell-based, human. The settings on record: 48 h. On the procedure: as §2
Assay [4] has as its system BEAS-2B (normal airway epithelial cells). Description: Cytotoxicity, resazurin cell viability. In kind it is cell-based, human. The settings on record: 48 h. On the procedure:
as §2

The subject of assay [5] is A. baumannii (IMI, MER resistant; strain ID not given). Put plainly: microbe, parasite or virus in culture. In kind it is cell-based, Acinetobacter baumannii. The settings on record: MER resistant, no strain ID printed. On the procedure:
as §1

For another assay, the system named is A. baumannii 515908. Description: microbe, parasite or virus in culture. The settings on record: 515908. In kind it is cell-based, Acinetobacter baumannii. On the procedure: as §1
The subject of assay [6] is MRSA USA300 cells. Description: Transmission electron microscopy. In kind it is cell-based, Staphylococcus aureus. The settings on record: 3x MICs for 60 min. An excerpt:
Transmission electron microscopy[14] was used to investigate the effects of HG2 and HG4 on MRSA USA300 cell morphology. […] They were then stained with 2% (w/v) uranyl acetate and Reynold’s lead citrate after which they were observed using a JEM1010 transmission electron microscope (JEOL Ltd, Tokyo, Japan) at 80 kV.

For assay [7], the system named is MRSA USA300 cells. Description: Time-kill kinetics. The settings on record: 3x MIC; for reduction in viable cells (time-kill): within the first 10 min, logarithmic-phase MRSA USA300; for time to complete cell death: no recovery observed after 24 h. In kind it is cell-based, Staphylococcus aureus. On the procedure:
The bactericidal activity of HG2, HG4 and comparator antimicrobial compounds was assessed using exponential-phase cultures[14] of MRSA USA300 grown in MHB (1 × 10^6-8 CFU/ml). […] Samples were taken at different time points, serially diluted and inoculated onto MH agar plates using the spread plate technique. After overnight incubation, the colony-forming units per millilitre of cell culture (CFU/ml) was calculated. Experiments were performed in quadruplicates.

≈ marks a conversion by molar mass, not a printed value. Bridge positions count the residues as written; N and C are the ends. Peptide text beside a SMILES is read from it.

As for `CC[C@H](C)[C@H](NC(=O)[C@H](CC(C)C)NC(=O)[C@H](CC(C)C)NC(=O)[C@H](CC(C)C)NC(=O)[C@H](CCCCN)NC(=O)[C@H](CCCCN)NC(=O)[C@@H](N)CCSC)C(=O)N[C@@H](CC(C)C)C(=O)N[C@@H](Cc1ccccc1)C(=O)N[C@H]1CSSC[C@@H](C(=O)N[C@@H](CCCCN)C(=O)N[C@@H](CCCCN)C(=O)N[C@@H](C)C(=O)N2CCC[C@H]2C(N)=O)NC(=O)CNC(=O)[C@H](C)NC(=O)[C@H](CC(C)C)NC(=O)[C@H](C)NC(=O)[C@H](CC(C)C)NC(=O)[C@H](C)NC(=O)[C@H](CC(C)C)NC1=O` [HG2] (H-MKKLLLILFCLALALAGCKKAP-NH2; disulfide 10-18; N-terminus assumed), the MIC was 64 µg/mL (≈ 27.2 µM) with P. aeruginosa (CF) C3719; above 512 µg/mL with P. aeruginosa PA01; 64 µg/mL (≈ 27.2 µM) in assay [1]; 256 µg/mL (≈ 109 µM) in assay [2]; 128 µg/mL (≈ 54.3 µM) in [5]; 32 µg/mL (≈ 13.6 µM) with A. baumannii 515908. The “IC50 (cell viability)” value stood at 359 ± 76 µg/mL (≈ 152 µM) with HepG2 (liver cell line), 96 ± 21 µg/mL (≈ 40.7 µM) in [3] and 120 ± 25 µg/mL (≈ 50.9 µM) in assay [4]. Besides, in the assay on MRSA USA300 cells [6], the “cell morphology by TEM” value was “changes in cell morphology and some cytoplasmic damage”. For the same molecule, the “reduction in viable cells (time-kill)” value in the assay with MRSA USA300 cells [7] is above 3 log10 CFU/ml. Also, the “time to complete cell death” value in the assay on MRSA USA300 cells [7] is reported as at most 10 min.

In the case of `CC[C@H](C)[C@H](NC(=O)[C@H](CC(C)C)NC(=O)[C@H](CC(C)C)NC(=O)[C@H](C)NC(=O)CNC(=O)CNC(=O)[C@@H](NC(=O)[C@@H](NC(=O)[C@H](CC(C)C)NC(=O)[C@H](C)NC(=O)[C@H](CC(C)C)NC(=O)CNC(=O)[C@H](CC(C)C)NC(=O)[C@@H](N)C(C)C)[C@@H](C)CC)C(C)C)C(=O)N[C@@H](CCCCN)C(=O)N[C@@H](CCCCN)C(=O)N[C@@H](CCCCN)C(=O)N[C@@H](CCC(N)=O)C(=O)N[C@@H](C)C(=O)N[C@@H](CCCCN)C(=O)N[C@@H](CO)C(N)=O` [HG4] (H-VLGLALIVGGALLIKKKQAKS-NH2; N-terminus and C-terminus assumed), the MIC against P. aeruginosa (CF) C3719 was 128 µg/mL (≈ 60.4 µM); in the assay with P. aeruginosa PA01, above 512 µg/mL; in [1], 128 µg/mL (≈ 60.4 µM); in assay [2], 256 µg/mL (≈ 121 µM); in assay [5], 64 µg/mL (≈ 30.2 µM); in the assay on A. baumannii 515908, 64 µg/mL (≈ 30.2 µM). In addition, the “IC50 (cell viability)” value with HepG2 (liver cell line) was above 1000 µg/mL; in assay [3] it was 294 ± 42 µg/mL (≈ 139 µM); in [4], above 1000 µg/mL. Further, the “cell morphology by TEM” value in the assay on MRSA USA300 cells [6] is “changes in cell morphology and some cytoplasmic damage”. The “reduction in viable cells (time-kill)” value with MRSA USA300 cells [7] was above 6 log10 CFU/ml. Besides, the “time to complete cell death” value in the assay on MRSA USA300 cells [7] is on record as at most 10 min.
